{"source": "BindingDB's records for patent US20230382889", "about": "(Volastra Therapeutics, 2023)", "target": "T1, Kinesin-like protein KIF18A (Homo sapiens, UniProt Q8NI77)", "T1 sequence (Q8NI77 whole entry)": "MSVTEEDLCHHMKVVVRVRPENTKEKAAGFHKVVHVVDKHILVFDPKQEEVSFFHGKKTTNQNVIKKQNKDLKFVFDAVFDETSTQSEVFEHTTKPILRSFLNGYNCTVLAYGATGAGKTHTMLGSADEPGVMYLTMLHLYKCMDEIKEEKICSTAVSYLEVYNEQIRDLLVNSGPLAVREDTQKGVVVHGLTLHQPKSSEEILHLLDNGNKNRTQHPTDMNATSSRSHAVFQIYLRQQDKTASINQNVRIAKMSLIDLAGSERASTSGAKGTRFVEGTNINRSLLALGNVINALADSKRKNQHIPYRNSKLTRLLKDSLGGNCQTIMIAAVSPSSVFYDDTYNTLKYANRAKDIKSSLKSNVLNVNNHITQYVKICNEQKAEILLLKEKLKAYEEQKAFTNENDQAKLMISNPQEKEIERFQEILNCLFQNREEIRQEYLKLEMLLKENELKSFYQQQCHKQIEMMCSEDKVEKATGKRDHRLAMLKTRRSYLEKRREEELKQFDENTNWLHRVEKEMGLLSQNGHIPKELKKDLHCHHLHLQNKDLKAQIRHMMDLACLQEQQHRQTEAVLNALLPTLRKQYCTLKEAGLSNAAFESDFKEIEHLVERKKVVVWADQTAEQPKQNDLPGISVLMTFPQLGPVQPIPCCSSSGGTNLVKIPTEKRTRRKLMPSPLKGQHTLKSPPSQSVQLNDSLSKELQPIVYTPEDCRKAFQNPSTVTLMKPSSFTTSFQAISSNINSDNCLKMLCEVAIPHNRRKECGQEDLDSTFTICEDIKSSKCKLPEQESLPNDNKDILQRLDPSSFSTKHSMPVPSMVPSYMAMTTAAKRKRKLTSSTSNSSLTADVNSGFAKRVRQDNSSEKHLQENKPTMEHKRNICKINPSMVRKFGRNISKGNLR", "assay": "Inhibition of KIF18A Microtubule-Dependent ATPase Activity", "experimental": "IC50 values were calculated from concentration vs. % Inhibition data via a four-parameter variable slope model."}
{"smiles": "O=S(=O)(CCO)Nc1cc(N2CCC3(CC2)CC3)c(-c2cn(-c3ccc(F)c(S(=O)(=O)N4CC(F)(F)C4)c3)nn2)cn1", "note": "[US20230382889, Compound 112]", "values": [{"measurement": "IC50", "result": 77, "unit": "nM"}]}
